Measured values reported in PMC9072872, “Structure-based design of nucleoside-derived analogues as sulfotransferase inhibitors” (RSC Advances, 2019).
pIC50: −log10 of the molar value.

Legend:
HS2ST = molecular target: T1, HS2ST (Gallus gallus, UniProt Q76KB1); experiment: Microfluidic mobility shift sulfation assay, HS2ST (fluorescent hexasaccharide substrate); format: biochemical, chicken; settings: for pIC50: read-out: IC50 against HS2ST
T1 construct: made in house; host or cells: E. coli Rosetta-gami (DE3)
T1 sequence (Q76KB1 1-356): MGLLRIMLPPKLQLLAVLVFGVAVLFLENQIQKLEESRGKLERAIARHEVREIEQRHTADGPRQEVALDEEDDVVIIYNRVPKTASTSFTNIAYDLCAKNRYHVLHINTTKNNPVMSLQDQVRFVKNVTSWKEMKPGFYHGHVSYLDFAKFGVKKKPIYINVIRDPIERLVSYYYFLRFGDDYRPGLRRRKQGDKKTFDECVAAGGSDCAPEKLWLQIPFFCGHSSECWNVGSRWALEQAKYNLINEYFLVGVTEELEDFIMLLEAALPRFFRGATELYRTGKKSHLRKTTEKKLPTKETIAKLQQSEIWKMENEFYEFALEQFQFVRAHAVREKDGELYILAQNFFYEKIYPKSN
Description: (§1) Compounds were initially screened at 400 μM in the presence 20 nM HS2ST and 0.1 μM TPST1 respectively.
(§2) Fig. 4 Summary of enzymatic inhibition assays against HS2ST and TPST1. (A) Enzymatic analysis of HS2ST1 inhibition by a panel of PAP- and PAPS-mimetic compounds. […] HS2ST sulfotransferase activity was assayed using a fluorescent hexasaccharide substrate (2 μM) and normalised to DMSO (4% v/v) or buffer control. Data shown is mean and SD of 4 repeat experiments. (B) Full dose–response curves for selected compounds. […] HS2ST activity calculated as previously described. Data from two independent experiments are combined. (C) Enzymatic analysis of TPST1 inhibition by a panel of PAP- and PAPS-mimetic compounds. […] TPST1 activity was measured using fluorescently-labelled CC4-tide (2 μM) and normalised to DMSO (4% v/v) or buffer control. (D) Full dose–response curves for selected compounds. […] TPST1 activity was measured using CC4-tide and normalised to DMSO or buffer controls as previously described. The data shown is from duplicate experiments.
N-sulfated, fluorescein-tagged HS2ST1 hexasaccharide glycan substrate (GlcNS-GlcA- GlcNS-IdoA-GlcNS-GlcA-fluorescein, where S=sulfation) containing L-IdoA at the third residue from the reducing end (to which a linker and the fluorophore were conjugated) was purchased from GLY CAN therapeutics. TPST1 peptide substrate (CC4-tide, 5-FAM-EDFED YEFDG-CONH2) was synthesised using solid-phase Fmoc chemistry (Pepceuticals, Leicester, UK). All standard laboratory biochemicals, were purchased from Sigma, and were of the highest analytical quality.
(§3) 5'-phosphosulfate, lithium salt hydrate, PAP (adenosine 3',5'-diphosphate, disodium salt), CoA (coenzymeA, sodium salt), ATP (adenosine 5’-triphosphate, disodium salt hydrate) were all purchased from Sigma and stored at -80 °C to minimise degradation.
Recombinant Protein Production and SDS-PAGE […]
(§4) Microfluidics-Based Sulfation Assay
(§5) Non-radioactive microfluidic mobility shift peptide and carbohydrate sulfation assays were performed in solution with a 12-sipper chip coated with SR8 reagent and a Perkin Elmer EZ Reader II system 8 using an EDTA-based separation buffer and real-time kinetic evaluation of substrate sulfation. Pressure and voltage settings were adjusted manually to afford optimal separation of the sulfated product and non-sulfated substrate, with a sample (sip) volume of 20 nL, and total assay tim es appropriate for the experiment. The fluorophore tagged TPST1 peptide substrate and HS2ST1 glycan substrate where detected by the EZ Reader via LED-induced fluorescence.
(§6) Individual sulfation assays were assembled in a 384 well plate in a volume of 80 µL in the presence of […]
(§7) and 5 mM MgCl2. The degree of substrate sulfation was directly calculated using EZ Reader software by measuring the sulfo-product:non-sulfated substrate ratio at each time-point. The act ivity of the sulfotransferase enzymes in the presence of biochemicals and small molecule inhibitors was quantified in ‘kinetic mode’ by monitoring the amount of sulfated product generated over the assay time, relative to control assay with no additional inhibitor molecule (DMSO or buffer control). Data was normalized with respect to these control assays, with sulfate incorporation into the substr ate limited to ~ 20% to prevent depletion of PAPS and to ensure assay linearity. K m and IC50 values were determined by non-linear regression analysis with GraphPad Prism software. […]

TPST1 = molecular target: T2, TPST1 (Homo sapiens, UniProt O60507); experiment: Microfluidic mobility shift sulfation assay, TPST1 (fluorescent CC4-tide substrate); format: biochemical; settings: for pIC50: read-out: IC50 against TPST1
T2 construct: Human TPST1 (residues Lys43-Leu360) enzyme was purified as a recombinant protein; made in house
T2 sequence (O60507 43-360): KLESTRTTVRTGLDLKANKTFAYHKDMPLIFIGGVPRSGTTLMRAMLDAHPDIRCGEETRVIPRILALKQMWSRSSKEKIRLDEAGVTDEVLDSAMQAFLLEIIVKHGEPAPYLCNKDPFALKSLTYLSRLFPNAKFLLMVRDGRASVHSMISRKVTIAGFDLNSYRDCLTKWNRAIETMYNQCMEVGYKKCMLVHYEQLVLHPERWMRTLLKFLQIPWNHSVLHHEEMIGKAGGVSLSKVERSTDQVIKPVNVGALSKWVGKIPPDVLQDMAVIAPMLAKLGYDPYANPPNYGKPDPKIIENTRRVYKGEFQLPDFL
Description: as §1
as §2, with “duplicate experiments. […]” for “duplicate experiments.”
TPST1 peptide substrate (CC4-tide, 5-FAM-EDFED YEFDG-CONH2) was synthesised using solid-phase Fmoc chemistry (Pepceuticals, Leicester, UK). All standard laboratory biochemicals, were purchased from Sigma, and were of the highest analytical quality.
as §3
Recombinant Protein Production and SDS-PAGE
Human TPST1 (residues Lys43-Leu360) enzyme was purified as a recombinant protein containing an N-terminal 6xHis tag as previously described. […]
as §4, §5, §6, §7

pIC50 (HS2ST)	pIC50 (TPST1)	inhibitory activity against HS2ST (HS2ST; compound 400 μM, HS2ST 20 nM, PAPS 5 μM)	inhibitory activity against TPST1 (TPST1; compound 400 μM, TPST1 0.1 μM, PAPS 5 μM)	SMILES
4.90	5.44			Nc1ncnc2c1ncn2[C@H]1C[C@H](OP(=O)(O)O)[C@@H](COP(=O)(O)O)O1 [2′-deoxy-PAP]
		inactive	inactive	Nc1ncnc2c1ncn2[C@H]1C[C@H](O)[C@@H](Cn2cc(P(=O)(O)O)nn2)O1 [Compound 11]
3.52 to 4.00	3.52 to 4.00			Nc1ncnc2c1ncn2[C@H]1C[C@H](OP(=O)(O)O)[C@@H](Cn2cc(P(=O)(O)O)nn2)O1 [Compound 12]
3.52 to 4.00	3.52 to 4.00			Nc1ncnc2c1ncn2[C@H]1C[C@H](O)[C@@H](Cn2cc(P(=O)(O)OCc3ccccc3)nn2)O1 [Compound 13]
